In patent US20170143605A1, “Compositions Comprising Osteopontin Derivatives for the Inhibition of Hair Growth” (FOLLICUM AB, priority 2014, published 2017):

Columns and labels:
[1] = test system: human male scalp skin grafted onto SCID mice; experiment: Hair growth of human male scalp skin grafted onto SCID mice; assay type: in vivo; details: human scalp grafts on SCID/beige mice; FOL-005 300 nM per graft intradermally twice a week; Minoxidil 5% topically twice a day; three months
Description: The effect of FOL-005 on hair growth of human male scalp skin grafted onto SCID mice was studied.
The aim of the study was to investigate the effect of FOL-005 on hair growth of human male scalp skin with tendency to androgenetic alopecia. In order to address this issue, fort-two female SCID/beige mice, six weeks of age, were involved in the study. Punch grafts, 3 mm^2, obtained from scalp skin of human volunteers with tendency to develop common alopecia, were transplanted onto SCID/beige mice (three grafts per mouse).
One week following transplantation, the mice were randomly divided into four treated groups as follows: • 1. Vehicle (10 mice) was injected intradermally twice a week and served as a negative control. • 2. Minoxidil (5%) (11 mice) was applied topically twice a day and served as appositive control. • 3. FOL-005 (300 nM per graft) (11 mice) was injected intradermally twice a week. • 4. Minoxidil 5%+FOL-005/Minoxidil (5%) (11 mice) was applied topically twice a day. FOL-005 (300 nM per graft) was injected intradermally twice a week. For the first 4 weeks the animals were treated with minoxidil only (in order to initiate hair growth) and then for the remaining period (2 months) FOL-005 treatment was added as injections, while minoxidil treatment was maintained as a topical application.
The number of hairs/graft was counted twice a week by two independent observers. […]

intact human scalp skin [2] = experiment: Masson-Fontana melanin pigmentation in intact human scalp skin; assay type: cell-based; details: injection or addition to the culture medium
Description: FIG. 8). Effect of FOL-005 on melatonin content in intact human scalp skin. The analysis was performed using Masson Fontana histochemistry and morphometric evaluation of each tissue section. Results presented as mean+/−SEM. One-way ANOVA and Bonferroni's post-hoc test, **p<0.01, *p<0.05. “D3”=3 days after treatment.
(§1) At different time points, skin specimens were embedded in O.C.T.™ Tissue-TEK (Sakura, Zoeterwoude, the Netherlands), frozen in liquid nitrogen, and 6 μm cryosections were cut. The sections were then post-fixed in acetone, air-dried and processed for haematoxylin and eosin (H&E; Sigma), Giemsa or Masson-Fontana histochemistry. Individual hair follicles were analysed with respect to their stage of cycling as described (Whiting et al. 1999), while hair follicle melanization was assessed by standard silver nitrate histochemistry (Masson-Fontana stain). Quantification of well-defined reference areas within the proximal hair matrix was performed using the Image J software (NIH).
Pigmentation changes in isolated follicles treated with exemplary polypeptide FOL-005 were assessed by Masson-Fontana histochemistry (see Whiting et al., 1999, J Investig Dermatol Symp Proc 4:282-284, the relevant disclosures of which are incorporated by reference).

[3] = test system: human HFs in organ-cultured full-thickness human scalp skin fragments; experiment: Masson Fontana HF pigmentation in organ-cultured human scalp skin fragments; assay type: cell-based; details: at the doses tested; pooled data from 6 patients
Description: FIG. 15). Masson Fontana staining. […] Anagen & Catagen Hair Follices analysed. Pooled data from 6 patients. Mean+/−SEM, n=41-51 HFs evaluated, unpaired Student's t-test, ns
FIG. 17). Masson Fontana staining. […] Anagen HFs analysed. Pooled data from 6 patients. Mean+/−SEM, n=13-22 HFs evaluated, unpaired Student's t-test, ns
(§2) The following experiments were performed using human HFs in organ-cultured full-thickness human scalp skin fragments (4 mm, 6 female patients, 42-65 yrs).

[4] = test system: human HFs in organ-cultured full-thickness human scalp skin fragments; experiment: Hair cycle staging in organ-cultured human scalp skin fragments; assay type: cell-based; details: pooled data from six patients
Description: FIG. 13). Hair Cycle staging. Treatment of HFs with FOL-005 consistently induces anagen HFs within human scalp skin to enter catagen prematurely in all six patients tested (in each vertical bar, the top region corresponds to mid-catagen, the middle region to early catagen and the bottom region to anagen). Pooled data from 6 patients.
as §2

[5] = test system: human HFs in organ-cultured full-thickness human scalp skin fragments; experiment: MHCII staining (indirect immunofluorescence); assay type: cell-based
Description: FIG. 23). MHCII staining HS 14-061 (indirect immunofluorescence. Mouse anti human Ab HLA-DP-DQ-DR from DAKO). […] These MHCII+ cells are most likely macrophages.
as §2

intact human scalp skin [6] = experiment: Full-thickness human scalp skin organ culture: hair cycle staging; assay type: cell-based
Description: Full-thickness human scalp skin organ culture was performed for six days under serum-free conditions as described in (Lu et al., 2007, the disclosures of which are incorporated herein by reference).
In brief, scalp skin of female patients was obtained from routine face-lift surgery after informed consent. Human scalp skin was washed in William's E medium (Biochrom, Cambridge, UK) supplemented with 100 IU/ml penicillin G (Sigma, St Louis, Mo., USA), 10 μg/ml streptomycin (Sigma), 0.25 μg/ml amphotericin B (Gibco, Karlsruhe, Germany) for 5 min. The out-growing hair shafts were shaved off to the level of the epidermis; 2 mm biopsies of intact scalp skin were then punched out (parallel to the direction of hair growth, i.e. at an oblique angle), using an Acu-puncher (STIEFEL, Offenbach am Main, Germany).
The punches of human scalp tissue were carefully placed into William's E medium [supplemented with 100 IU/ml penicillin/10 μg/ml streptomycin, 10 μg/ml of insulin (Sigma), 10 ng/ml of hydrocortisone (Sigma) and 2 mmol/I of I-glutamine (Invitrogen, Paisley, UK)]. The skin fragments were left to float in the medium, with the epidermis up at air/liquid interface and the dermis/subcutis down. The cultures were maintained at 37° C. in a gassed incubator with 95% air and 5% CO2. The culture medium was changed every other day.
Immediately after commencement of culturing, the skin fragments were exposed to the exemplary polypeptide FOL-005 (at a dose of 15 nM to 3 μM), which lasted for the duration of culturing.
as §1

[7] = test system: human HFs in organ-cultured full-thickness human scalp skin fragments; experiment: CD31 staining (indirect immunofluorescence); assay type: cell-based
Description: FIG. 24). CD31 staining HS14-061 (indirect immunoflourescence, mouse anti-human CD31 Ab from DAKO).
as §2

[8] = test system: human HFs in organ-cultured full-thickness human scalp skin fragments; experiment: Hair follicle morphology (PAS staining); assay type: cell-based
Description: as §2

[9] = test system: isolated human hair follicles; experiment: Masson Fontana melanin pigmentation analysis in cultured isolated human hair follicles; assay type: cell-based; details: 60 nM
Description: FIG. 3). Effect of FOL-005 on melatonin content in cultured isolated human hair follicles. The analysis was performed using Masson Fontana histochemistry and morphometric evaluation of each tissue section. Results presented as mean+/−SEM, n=26-47 hair follicles evaluated in each group. One-way ANOVA and Bonferroni's post-hoc test, *p<0.05
Masson Fontana staining: Cryosections were air dried and fixed in ethanol-acetic acid. The sections were washed in tris-buffered saline (TBS) and distilled water several times. Cryosections were treated with ammoniacal silver solution (Fluka, Seelze, Germany) for 40 min at 56° C. in the dark. After washing in distilled water, the sections were treated with 5% aqueous sodium thiosulphate (Merck, Darmstadt, Germany) for 1 min. Next, the sections were washed in running tap water for 3 min and were counter-stained in 0.5% aqueous neutral red (Sigma). After washing in distilled water, sections were dehydrated and mounted in Eukitt (O. Kindler, Freiburg, Germany).

[10] = test system: human HFs in organ-cultured full-thickness human scalp skin fragments; experiment: Emigration of dermal papilla cells in organ-cultured human scalp skin fragments; assay type: cell-based; details: anagen HFs only; pooled data from six patients
Description: FIG. 11). Effect of FOL-005 on emigration of Dermal Papilla (DP) cells. Only Anagen Hair follicles (HFs) analysed. Results based on pooled data from 6 patients. No significant change in the number of emigrating DP cells in HFs treated with FOL-005. Mean+/−SEM, n=18-22 HFs evaluated, Mann-Whitney test, ns
as §2

[11] = test system: isolated human hair follicles; experiment: Organ culture of isolated human hair follicles: hair cycle staging (anagen to catagen); assay type: cell-based
Description: Anagen VI hair follicles (see Kloepper et al., 2010, the disclosures of which are incorporated herein by reference) were micro dissected from normal human scalp skin obtained with informed patient consent from three healthy adult females undergoing routine face-lift cosmetic surgery.
Isolated hair follicles were organ-cultured for 6-10 days in insulin- and hydrocortisone-supplemented William's E medium according to Philpott et al. (see Philpott et al., 1990; Bodó et al., 2009; Gáspár et al., 2010, the disclosures of which are incorporated herein by reference).
Treatment with the exemplary polypeptide FOL-005 was initiated immediately upon culturing the hair follicles, and lasted 7 to 10 days.
At the end of organ-culture, hair follicles were embedded and processed for longitudinal cryosections (Bodó et al., 2009; Gáspár et al., 2010).

[12] = test system: human HFs in organ-cultured full-thickness human scalp skin fragments; experiment: K15 staining (indirect immunofluorescence); assay type: cell-based
Description: FIG. 25). […] Preservation of HF stem cell pool and thus regenerative potential by FOL-005.
as §2
K15 staining was performed using HS14-087 (indirect immunoflourescence, mouse anti-human CK15 Ab from Chemikon).

[13] = test system: human HFs in organ-cultured full-thickness human scalp skin fragments; experiment: Toluidine blue staining for perifollicular mast cells; assay type: cell-based
Description: FIG. 22). Toluidine blue staining for detecting Mast cells.
as §2

intact human scalp skin [14] = experiment: Ki67/TUNEL double immunofluorescence in intact human scalp skin; assay type: cell-based; details: 60 nM; 3 days after treatment
Description: FIG. 7). Effect of FOL-005 on proliferation of Ki67 positive cells in intact human scalp skin. The concentration of FOL-005 was 60 nM, Mean+/−SEM, n=6-17 photos/punch was evaluated. “D3”=3 days after treatment.
To evaluate apoptotic and proliferating cells, double immunofluorescence was applied. Terminal dUTP nicked label-ling (ApopTag®Fluorescein in situ Apoptosis Detection Kit; Chemicon, Tenecula, Calif., USA) was used as a marker for apoptosis, and Ki67 immunoreactivity (DakoCytomation, Glostrup, Denmark) as indicator of cell proliferation, as previously described (Foitzik et. al., 2006).
Masson Fontana staining and immunohistochemistry was performed as described above.
The proliferation of Ki67 positive cells and apoptosis therein was determined as described in Whiting et al., 1999, J Investig Dermatol Symp Proc 4:282-284 (the relevant disclosures of which are incorporated by reference).
Cells were exposed to exemplary polypeptide FOL-005 at a dose of 60 nM.

[15] = test system: human HFs in organ-cultured full-thickness human scalp skin fragments; experiment: Ki67/TUNEL proliferation/apoptosis in organ-cultured human scalp skin fragments; assay type: cell-based; details: 15 nM; anagen and catagen HFs analysed
Description: FIG. 20). Ki67/TUNEL. […] Anagen & Catagen HFs analysed. Pooled data from 6 patients. Mean+/−SEM, n=48-59 HFs evaluated, Mann-Whitney test, *p<0.02. To reduce data distortion by outliers, Grubb's test was performed and the outlier value was eliminated from analysis.
as §2
Mean+/−SEM, n=48-59 HFs evaluated, Mann-Whitney test, *p<0.02. To reduce data distortion by outliers, Grubb's test was performed and the outlier value was eliminated from analysis.

Nc1cc(N2CCCCC2)nc(N)[n+]1[O-] [Minoxidil, reference compound]
number of hairs/graft [1]: 8.1±0.1 hairs/graft

VDTYDGDISVVYGLR (FOL-005, Peptide with similarity to sub-region of osteopontin) [exemplary polypeptide of the invention, osteopontin-derived 15-mer]
melanin pigmentation (intact human scalp skin [2]): significant reduction in pigmentation
HF pigmentation [3]: No significant changes
number of hairs/graft [1]: 2.1±0.4 hairs/graft
HF cycling (anagen to catagen) [4]: consistently induced anagen HFs within human scalp skin to enter catagen prematurely in all six patients tested
number of immunohistologically-detectable perifollicular MHC class II+ cells [5]: No marked difference
hair follicles in early catagen (intact human scalp skin [6]; addition to the culture medium): Almost all hair follicles are observed in early catagen
hair follicle regression (analysis of cryosections) (intact human scalp skin [6]; human skin pieces (Example B)): promotes hair follicle regression
catagen induction (intact human scalp skin [6]; injection into the scalp skin tissue): Catagen was also induced
transition from anagen to catagen phase (intact human scalp skin [6]; intact human scalp skin, 15 nM to 3 μM, six days culture): induced a rapid transition from anagen to catagen phase
number of CD31+ cells (endothelial cells) [7]: No marked differences
morphology of the BM (basal membrane) in HFs [8]: No observable difference
melanin pigmentation [9]: significant reduction in pigmentation
number of emigrating dermal papilla (DP) cells in HFs [10]: No significant effect
hair follicle regression (analysis of cryosections) [11]: promotes hair follicle regression
transition from anagen to catagen phase ([11]; 15 nM, 60 nM and 300 nM, treatment 7 to 10 days): induced a dose-dependent transition from anagen to catagen phase
number of K15+ cells [12]: No marked differences
human HF epithelial stem cells ([12]; K15 staining): not affected negatively
number of histochemically-detectable perifollicular mast cells [13]: No marked difference
apoptosis (proportion of TUNEL positive cells) (intact human scalp skin [14]): increased level of apoptosis
proliferation (proportion of Ki67 positive cells) (intact human scalp skin [14]): strong tendency towards reduced proliferation
number of apoptotic cells in HFs [15]: significant increase
number of proliferative cells in HFs [15]: No significant changes
